Results reported in patent publication US11939361B2, “Compositions of peptide inhibitors of Interleukin-23 receptor” (Janssen Pharmaceutica NV, priority 2020, dated 2024).

How the values were obtained:
[1] = tested on: rat trinitrobenzenesulfonic acid (TNBS)-induced colitis model; experiment: Rat TNBS-induced colitis model, efficacy; assay type: in vivo, Sprague-Dawley rats
Excerpt: Intracolonic TNBS instillation in Sprague-Dawley rats induces colonic inflammation driven in part by IL-23/IL-23R signaling (Cheng X, Taranath R, Mattheakis L, Bhandari A, Liu D. The biomarker profile of PTG-200, an oral peptide antagonist of IL-23 receptor, tracks with efficacy in a preclinical model of IBD. J Crohns Colitis. AGA Abstracts, 2017). The TNBS rat model therefore provides a measure of the local GI effects of SEQ ID NO: 1 on IL-23/IL-23R signaling.
The peptide of SEQ ID NO: 1 was evaluated in the rat TNBS model with oral dosing only, three times a day (0.03, 0.1, 0.3, 1, 3, 10, mg/kg/day), in three independent rat TNBS experiments. In all studies, the peptide of SEQ ID NO: 1 was dosed starting 2 days prior to TNBS induction through day 6, with euthanasia scheduled on day 7.
Disease severity resulting from TNBS can be assessed by qualitative scoring of the formation of strictures, adhesions, ulceration, and increase in wall thickness as described previously. […] Based on this qualitative scoring, the peptide of SEQ ID NO: 1 at 0.1 mg/kg/day was considered to be the minimally efficacious dose for colonic score (FIG. 13).
Data from 3 different studies were combined (represented by shapes of the symbols at each dose level: study 1 (Δ), study 2 (♦), study 3 (∘); box at interquartile range, bars at minima/maxima). The colons were scored on the following parameters: adhesion (0-2), stricture (0-3), ulcer (0-5), and wall thickness (0-2) for a total sum component score range of 0-12. The colon score was reduced by treatment with the peptide of SEQ ID NO: 1 at doses of […] (ns=not significant, * p<0.05, *** p<0.001, **** p<0.0001).

clinical = conditions: human, in vivo

Q: With `CC(=O)NCCCC[C@@H]1NC(=O)[C@H](Cc2c[nH]c3c(C)cccc23)NC(=O)[C@H]([C@@H](C)O)NC(=O)[C@H](CC(N)=O)NC(=O)[C@@H](NC(C)=O)C(C)(C)SSC(C)(C)[C@@H](C(=O)N[C@@H](Cc2ccc(OCCN)cc2)C(=O)N[C@@H](Cc2ccc3ccccc3c2)C(=O)NC2(C(=O)N[C@@H](CCC(=O)O)C(=O)N[C@@H](CC(N)=O)C(=O)N[C@@H](Cc3cccnc3)C(=O)N(C)CC(N)=O)CCOCC2)NC1=O` [SEQ ID NO: 1, Ac-[Pen]*—N-T-[W(7-Me)]-[Lys(Ac)]-[Pen]*-Phe[4-(2-aminoethoxy)]-[2-Nal]-[THP]-E-N-[3-Pal]-Sarc-NH2] as the compound, how does the TNBS-induced weight loss ([1]; 0.03, 0.1, 0.3, 1, 3, and 10 mg/kg/day, all 3 studies) read?
A: Its TNBS-induced weight loss is “prevented and reversed”.

Q: And the “minimally efficacious dose, body weight” value ([1]; day 7 as the study endpoint)?
A: The value was 0.3 mg/kg/day.

Q: And the “minimal efficacious dose, TNBS-induced colitis model (summary)” value ([1]; rat, in vivo)?
A: Its value is 0.3 mg/kg/day.

Q: What about the “minimally efficacious dose, colonic score” value ([1]; rat, in vivo) of the same compound?
A: The value was 0.1 mg/kg/day.

Q: And the half-life (clinical)?
A: The half-life was 10 to 12 h.

Q: What about the AUC (clinical; po, 10 mg) of the same compound?
A: The AUC was 1.56 ng·h/mL.

Q: And the AUC (clinical; po, 25 mg)?
A: Its AUC is 6.47 ng·h/mL.

Q: And the AUC (clinical; po, 100 mg)?
A: The AUC was 20.8 ng·h/mL.

Q: And the AUC (clinical; po, 300 mg)?
A: Its AUC is 51 ng·h/mL.

Q: And the half-life (clinical; po, 300 mg)?
A: Its half-life is 9.28 h.

Q: And the AUC (clinical; po, 1000 mg)?
A: The AUC was 141 ng·h/mL.

Q: What about the Cmax (clinical; po, 1000 mg) of the same compound?
A: Its Cmax is 8.3 ng/mL.

Q: And the Tmax (clinical; po, 1000 mg)?
A: Its Tmax is 4.5 h.
